From US9193721B2, “Fused derivatives as PI3Kδ inhibitors” (Incyte Holdings Corporation, priority 2010, dated 2015)

Legend:
[1] = target: T1, PI3Kδ (p110δ/p85α) (Homo sapiens, UniProt O00329); experiment: PI3Kδ scintillation proximity assay (assay A); assay type: biochemical; settings: 20 μM PIP2, 20 μM ATP, 4 nM PI3Kδ, 210 minutes, room temperature
T1 construct: purchased Millipore (Bedford, Mass.)
Protocol: PI3Kδ Scintillation Proximity Assay
[γ-33P] ATP (10 mCi/mL) was purchased from Perkin-Elmer (Waltham, Mass.). […] PI3Kδ (p110δ/p85α) was purchased from Millipore (Bedford, Mass.). ATP, MgCl2, DTT, EDTA, MOPS and CHAPS were purchased from Sigma-Aldrich (St. Louis, Mo.). Wheat Germ Agglutinin (WGA) YSi SPA Scintillation Beads was purchased from GE healthcare life sciences (Piscataway, N.J.).
The kinase reaction was conducted in polystyrene 384-well matrix white plate from Thermo Fisher Scientific in a final volume of 25 μL. Inhibitors were first diluted serially in DMSO and added to the plate wells before the addition of other reaction components. The final concentration of DMSO in the assay was 0.5%. The PI3K assays were carried out at room temperature in 20 mM MOPS, pH 6.7, 10 mM MgCl2, 5 mM DTT and CHAPS 0.03%. Reactions were initiated by the addition of ATP, the final reaction mixture consisted of 20 μM PIP2, 20 μM ATP, 0.2 μCi [γ-^33P] ATP, 4 nM PI3Kδ. Reactions were incubated for 210 minutes and terminated by the addition of 40 μL SPA beads suspended in quench buffer: 150 mM potassium phosphate pH 8.0, 20% glycerol. 25 mM EDTA, 400 μM ATP. The final concentration of SPA beads is 1.0 mg/mL. After the plate sealing, plates were shaken overnight at room temperature and centrifuged at 1800 rpm for 10 minutes, the radioactivity of the product was determined by scintillation counting on Topcount (Perkin-Elmer). IC50 determination was performed by fitting the curve of percent control activity versus the log of the inhibitor concentration using the GraphPad Prism 3.0 software.

[2] = tested on: Pfeiffer cell line (diffuse large B cell lymphoma); experiment: Pfeiffer cell proliferation assay; assay type: cell-based; settings: Homo sapiens, [3H]-thymidine incorporation after 3-4 days plus 12 hours
Protocol: Pfeiffer Cell Proliferation Assay
Pfeiffer cell line (diffuse large B cell lymphoma) was purchased from ATCC (Manassas, Va.) and maintained in the culture medium recommended (RPMI and 10% FBS). To measure the anti-proliferation activity of the compounds, the Pfeiffer cells were plated with the culture medium (2×10^3 cells/well/per 200 μl) into 96-well ultra-low binding plates (Corning, Corning, N.Y.), in the presence or absence of a concentration range of test compounds. After 3-4 days, [^3H]-thymidine (1 μCi/well) (PerkinElmer, Boston, Mass.) in PBS was then added to the cell culture for an additional 12 hours before the incorporated radioactivity was separated by filtration with water through GF/B filters (Packard Bioscience, Meridenj, Conn.) and measured by liquid scintillation counting with a TopCount (Packard Bioscience).

T1 sequence (O00329 whole entry): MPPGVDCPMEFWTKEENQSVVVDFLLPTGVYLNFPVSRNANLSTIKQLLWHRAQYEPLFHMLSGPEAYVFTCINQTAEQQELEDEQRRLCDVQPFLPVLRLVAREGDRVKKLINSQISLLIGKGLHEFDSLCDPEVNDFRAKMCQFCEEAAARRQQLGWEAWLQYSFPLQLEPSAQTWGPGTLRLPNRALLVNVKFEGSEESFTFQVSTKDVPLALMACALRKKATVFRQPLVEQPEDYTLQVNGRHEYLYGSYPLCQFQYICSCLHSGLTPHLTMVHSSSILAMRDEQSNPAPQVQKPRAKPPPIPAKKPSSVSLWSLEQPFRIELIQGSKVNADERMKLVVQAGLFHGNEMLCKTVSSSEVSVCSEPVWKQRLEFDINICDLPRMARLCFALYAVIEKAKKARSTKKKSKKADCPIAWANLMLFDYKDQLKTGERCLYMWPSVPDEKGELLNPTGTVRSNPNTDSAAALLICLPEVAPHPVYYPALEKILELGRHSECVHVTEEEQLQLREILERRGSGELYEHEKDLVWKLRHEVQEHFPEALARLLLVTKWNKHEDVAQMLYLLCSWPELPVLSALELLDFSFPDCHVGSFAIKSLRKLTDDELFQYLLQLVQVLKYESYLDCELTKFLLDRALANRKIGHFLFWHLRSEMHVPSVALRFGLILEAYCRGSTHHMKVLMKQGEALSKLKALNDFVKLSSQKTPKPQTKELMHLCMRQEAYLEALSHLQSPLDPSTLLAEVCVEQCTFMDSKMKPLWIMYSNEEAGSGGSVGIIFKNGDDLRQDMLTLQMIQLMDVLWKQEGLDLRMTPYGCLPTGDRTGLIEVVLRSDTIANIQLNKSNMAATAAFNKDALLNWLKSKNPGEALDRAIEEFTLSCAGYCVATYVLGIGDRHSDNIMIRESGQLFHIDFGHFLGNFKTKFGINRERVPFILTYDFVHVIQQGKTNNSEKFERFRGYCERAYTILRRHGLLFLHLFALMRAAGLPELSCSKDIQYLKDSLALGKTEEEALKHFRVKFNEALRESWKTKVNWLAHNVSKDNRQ
T1 sequence (P27986 whole entry partner): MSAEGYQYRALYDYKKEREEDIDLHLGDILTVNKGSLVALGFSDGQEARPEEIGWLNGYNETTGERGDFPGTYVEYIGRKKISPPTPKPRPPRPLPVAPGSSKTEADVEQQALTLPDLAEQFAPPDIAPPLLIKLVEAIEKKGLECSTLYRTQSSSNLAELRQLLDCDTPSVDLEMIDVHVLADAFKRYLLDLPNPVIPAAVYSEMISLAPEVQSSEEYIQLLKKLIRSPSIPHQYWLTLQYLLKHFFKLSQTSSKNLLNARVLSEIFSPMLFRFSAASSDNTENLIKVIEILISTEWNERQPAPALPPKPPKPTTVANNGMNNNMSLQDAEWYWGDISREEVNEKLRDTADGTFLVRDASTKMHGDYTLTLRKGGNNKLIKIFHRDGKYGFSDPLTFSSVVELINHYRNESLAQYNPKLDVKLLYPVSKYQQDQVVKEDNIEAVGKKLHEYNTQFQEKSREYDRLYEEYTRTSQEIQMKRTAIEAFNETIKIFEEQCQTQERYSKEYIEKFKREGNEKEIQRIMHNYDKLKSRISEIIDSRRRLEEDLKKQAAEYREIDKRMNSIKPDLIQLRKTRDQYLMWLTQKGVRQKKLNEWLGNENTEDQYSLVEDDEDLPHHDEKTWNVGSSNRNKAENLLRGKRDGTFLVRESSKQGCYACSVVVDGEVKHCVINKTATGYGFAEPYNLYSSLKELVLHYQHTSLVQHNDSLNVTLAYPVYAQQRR

| IC50 [1] | IC50 [2] | Compound |
| --- | --- | --- |
| < 50 nM | ≤ 100 nM | CC(Nc1ncnc2[nH]cnc12)c1cc(Cl)c2cncn2c1N1CC[C@H](O)C1 (stereo partly drawn) [Example 24, (3S)-1-{8-Chloro-6-[1-(9H-purin-6-ylamino)ethyl]imidazo[1,5-a]pyridin-5-yl}pyrrolidin-3-ol] |
| < 50 nM | 500 to 1000 nM | CCN(CC)c1c(C(C)Nc2ncnc3[nH]cnc23)cc(Cl)c2cnc(C)n12 (stereo not drawn) [Example 25, N-{1-[8-Chloro-5-(diethylamino)-3-methylimidazo[1,5-a]pyridin-6-yl]ethyl}-9H-purin-6-amine] |
| < 50 nM | ≤ 100 nM | CC(Nc1ncnc2[nH]cnc12)c1cc(Cl)c2ccnn2c1-c1cccc(F)c1 (stereo not drawn) [Example 26, N-{1-[4-chloro-7-(3-fluorophenyl)pyrazolo[1,5-a]pyridin-6-yl]ethyl}-9H-purin-6-amine] |
| < 50 nM | ≤ 100 nM | CC(Nc1ncnc2[nH]cnc12)c1cc(F)c2ccnn2c1-c1cccc(F)c1 (stereo not drawn) [Example 27, N-{1-[4-fluoro-7-(3-fluorophenyl)pyrazolo[1,5-a]pyridin-6-yl]ethyl}-9H-purin-6-amine] |
| < 50 nM | ≤ 100 nM | COc1cccc(-c2c(C(C)Nc3ncnc4[nH]cnc34)cc(Cl)c3ccnn23)c1 (stereo not drawn) [Example 28, N-{1-[4-chloro-7-(3-methoxyphenyl)pyrazolo[1,5-a]pyridin-6-yl]ethyl}-9H-purin-6-amine] |
| < 50 nM | 500 to 1000 nM | CC(Nc1ncnc2[nH]cnc12)c1cc(F)c2cncn2c1-c1cccc(F)c1 (stereo not drawn) [Example 29, N-{1-[8-Fluoro-5-(3-fluorophenyl)imidazo[1,5-a]pyridin-6-yl]ethyl}-9H-purin-6-amine] |
| < 50 nM | 100 to 500 nM | CC(=O)N1CCN(c2c(C(C)Nc3ncnc4[nH]cnc34)cc(Br)c3cncn23)CC1 (stereo not drawn) [Example 30, N-{1-[5-(4-Acetylpiperazin-1-yl)-8-bromoimidazo[1,5-a]pyridin-6-yl]ethyl}-9H-purin-6-amine bis(trifluoroacetate)] |
| 200 to 750 nM | > 3000 nM | CC(=O)N1CCN(c2c(C(C)Nc3ncnc4[nH]cnc34)cc(C#N)c3cncn23)CC1 (stereo not drawn) [Example 31, 5-(4-Acetylpiperazin-1-yl)-6-[1-(9H-purin-6-ylamino)ethyl]imidazo[1,5-a]pyridine-8-carbonitrile bis(trifluoroacetate)] |
| < 50 nM | > 3000 nM | CC(=O)N1CCN(c2c(C(C)Nc3ncnc4[nH]cnc34)cc(C)c3cncn23)CC1 (stereo not drawn) [Example 32, N-{1-[5-(4-Acetylpiperazin-1-yl)-8-methylimidazo[1,5-a]pyridin-6-yl]ethyl}-9H-purin-6-amine bis(trifluoroacetate)] |
